# According to patent publication US20250034216A1, “STEREOSELECTIVE COVALENT LIGANDS FOR ONCOGENIC AND IMMUNOLOGICAL PROTEINS” (The Scripps Research Institute, priority 2021, published 2025):
# Columns and labels:
# Assay in all cases: IA-DTB cysteine engagement
# Type in all cases: binding
# Conditions in all cases: 22Rv1 cells, 20 μM probe, 1 h, relative to DMSO
# GSTO1_C32 = target: T1, GSTO1_C32 (Homo sapiens, UniProt P78417)
# T1 construct: endogenous in cells; host or cells: 22Rv1
# T1 sequence (P78417 1-241): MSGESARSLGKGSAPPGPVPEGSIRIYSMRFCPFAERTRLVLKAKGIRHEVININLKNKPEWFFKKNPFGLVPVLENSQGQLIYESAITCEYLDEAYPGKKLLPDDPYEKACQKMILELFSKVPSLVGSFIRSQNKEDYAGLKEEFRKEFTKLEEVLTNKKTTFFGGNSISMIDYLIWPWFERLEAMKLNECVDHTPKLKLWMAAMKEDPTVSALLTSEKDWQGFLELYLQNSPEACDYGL
# Outline: (§1)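 Cells were treated in situ with electrophilic probes, then lysed, and the lysates (2 mg/mL protein) were labeled with IA-DTB for 1 h at ambient temperature. After reduction, alkylation and trypsin digestion, labeled peptides were streptavidin-enriched, TMT-labeled and fractionated. Engagement ratios are probe vs DMSO reporter intensities, averaged across replicates.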
# ABCB8_C454 = target: T2, ABCB8_C454 (Homo sapiens, UniProt Q9NUT2)
# T2 construct: endogenous in cells; host or cells: 22Rv1
# T2 sequence (Q9NUT2 26-735): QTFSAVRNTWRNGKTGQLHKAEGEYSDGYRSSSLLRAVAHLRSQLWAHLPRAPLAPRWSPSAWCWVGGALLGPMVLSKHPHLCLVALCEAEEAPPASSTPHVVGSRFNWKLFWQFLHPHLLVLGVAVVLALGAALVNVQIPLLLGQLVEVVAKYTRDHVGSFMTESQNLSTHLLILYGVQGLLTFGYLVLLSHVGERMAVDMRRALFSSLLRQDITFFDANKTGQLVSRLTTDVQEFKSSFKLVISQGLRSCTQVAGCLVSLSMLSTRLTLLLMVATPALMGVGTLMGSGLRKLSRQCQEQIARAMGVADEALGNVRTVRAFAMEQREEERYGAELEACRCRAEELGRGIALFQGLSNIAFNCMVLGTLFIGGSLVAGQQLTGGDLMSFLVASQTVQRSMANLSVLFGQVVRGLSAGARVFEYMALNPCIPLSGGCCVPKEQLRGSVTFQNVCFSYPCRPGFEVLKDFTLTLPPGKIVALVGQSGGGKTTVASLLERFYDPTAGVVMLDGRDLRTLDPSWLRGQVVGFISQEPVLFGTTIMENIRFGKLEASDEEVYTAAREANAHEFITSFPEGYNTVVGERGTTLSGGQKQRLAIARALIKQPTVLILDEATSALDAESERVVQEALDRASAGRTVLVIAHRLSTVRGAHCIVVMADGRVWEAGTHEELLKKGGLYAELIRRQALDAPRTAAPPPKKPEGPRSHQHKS
# Outline: as §1
# SLC25A39_C334 = target: T3, SLC25A39_C334 (Homo sapiens, UniProt Q9BZJ4)
# T3 construct: endogenous in cells; host or cells: 22Rv1
# T3 sequence (Q9BZJ4 1-359): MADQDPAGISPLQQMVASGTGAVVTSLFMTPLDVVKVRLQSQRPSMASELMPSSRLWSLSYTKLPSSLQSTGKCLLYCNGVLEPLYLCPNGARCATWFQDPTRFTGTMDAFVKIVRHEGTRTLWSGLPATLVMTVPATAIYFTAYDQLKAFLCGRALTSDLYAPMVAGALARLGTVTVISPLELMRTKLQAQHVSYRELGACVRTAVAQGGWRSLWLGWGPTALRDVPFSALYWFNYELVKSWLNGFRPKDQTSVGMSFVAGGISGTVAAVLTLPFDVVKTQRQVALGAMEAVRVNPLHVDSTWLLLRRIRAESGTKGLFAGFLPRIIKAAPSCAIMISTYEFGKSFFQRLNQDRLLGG
# Outline: as §1
% engagement GSTO1_C32 (GSTO1_C32) [%],% engagement ABCB8_C454 (ABCB8_C454) [%],% engagement SLC25A39_C334 (SLC25A39_C334) [%],Compound
80.5,67,72,"C=CC(=O)N1C[C@H](c2ccc(Br)cc2)[C@H]1C(=O)Nc1cccc2cccnc12 [MY-3B, (2S,3S)-1-acryloyl-3-(4-bromophenyl)-N-(quinolin-8-yl)azetidine-2-carboxamide]"
82,14,45.5,"C=CC(=O)N1C[C@H](c2ccc(Br)cc2)[C@@H]1C(=O)Nc1cccc2cccnc12 [MY-1B, (2R,3S)-1-acryloyl-3-(4-bromophenyl)-N-(quinolin-8-yl)azetidine-2-carboxamide]"
79,24,30.5,"C=CC(=O)N1C[C@H](c2ccc(Br)cc2)[C@H]1C(=O)Nc1cccc2cccnc12 [MY-3A, (2S,3S)-1-acryloyl-3-(4-bromophenyl)-N-(quinolin-8-yl)azetidine-2-carboxamide]"
22,−1.25,23,"C=CC(=O)N1C[C@@H](c2ccc(Br)cc2)[C@H]1C(=O)Nc1cccc2cccnc12 [MY-1A, (2S,3R)-1-acryloyl-3-(4-bromophenyl)-N-(quinolin-8-yl)azetidine-2-carboxamide]"
